Test systems include U-251; HL-60; A549; MDA-MB-435; 786-0; SF-268; NCI-H226; UACC-257; COLO 205; EKVX; DU-145; LOX IMVI; HCC 2998; IGROV-1; HCT-15; OVCAR-3; MDA-N; SF-295; NCI/ADR-RES; HOP-92.
Common to all, as to experiment: growth of human tumour cells (NCI), 48 h

The results in this text go back to ChEMBL document CHEMBL1201862, “PubChem BioAssay data set” (2004).

The structures appear in SMILES notation. Structures can show the parent of a compound that is named as a salt.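 These data come from cells grown in 96-well plates and exposed to compound for 48 hours at five concentrations. GI50 marks 50% less growth.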 The source made the active and inactive calls. Cut-off read from the data, not from the text of the source: active = GI50 up to about 1.1 µM and inactive = higher.

`COc1cc2c(cc1OC)C1c3ccccc3CCN1CCC2.[O-][Cl+3]([O-])([O-])O` (configuration not stated): the GI50 with U-251 was > 100 µM (inactive); in the test with HL-60 it was 68.5 µM (inactive); with A549, > 100 µM (inactive); with MDA-MB-435, 83.6 µM (inactive); in the test with 786-0, > 100 µM (inactive); in the test on SF-268, > 100 µM (inactive). In addition, the GI50 in the test on NCI-H226, in the test on UACC-257, in the test on COLO 205, in the test with EKVX, in the test with DU-145 and in the test on LOX IMVI was > 100 µM (inactive) each time. Moreover, the GI50 in the test with HCC 2998 was > 100 µM (inactive); with IGROV-1, > 100 µM (inactive); in the test with HCT-15 it was over 100 µM; in the test on OVCAR-3, > 100 µM (inactive); in the test on MDA-N it was > 100 µM (inactive); with SF-295, > 100 µM (inactive). Further, the GI50 with NCI/ADR-RES is > 100 µM (inactive).

`OCCN(CO)CO`: the GI50 in the test with U-251 was > 100 µM (inactive); in the test on A549 it was > 100 µM (inactive); with MDA-MB-435, > 100 µM (inactive); in the test with 786-0, 91.4 µM (inactive); in the test with SF-268 it was > 100 µM (inactive); in the test on NCI-H226 it was > 100 µM (inactive). Also, the GI50 in the test with UACC-257, in the test on COLO 205, in the test on HOP-92, in the test on EKVX, in the test on DU-145 and in the test with HCC 2998 was > 100 µM (inactive) in each case. In addition, the GI50 was > 100 µM (inactive) in the test with IGROV-1; over 100 µM in the test on HCT-15; > 100 µM (inactive) in the test on OVCAR-3; > 100 µM (inactive) in the test with MDA-N; > 100 µM (inactive) with SF-295; > 100 µM (inactive) with NCI/ADR-RES.

Regarding `O=C1c2ccccc2-c2cc([N+](=O)[O-])c([N+](=O)[O-])cc21`, the GI50 was 1.56 µM (inactive) in the test on U-251; 0.564 µM (active) with HL-60; 2.43 µM (inactive) with A549; 1.65 µM (inactive) in the test on MDA-MB-435; 2.25 µM (inactive) in the test with 786-0; 2.18 µM (inactive) in the test on SF-268. For the same molecule, the GI50 in the test with NCI-H226 is 4.21 µM (inactive); with UACC-257, 1.41 µM (inactive); in the test on COLO 205, 2.11 µM (inactive); in the test with HOP-92, 1.72 µM (inactive); in the test with EKVX it was 2.04 µM (inactive); in the test on DU-145, 1.77 µM (inactive). The GI50 is 0.861 µM (active) in the test with LOX IMVI; 1.49 µM (inactive) with IGROV-1; 1.78 µM with HCT-15; 2.35 µM (inactive) in the test on MDA-N; 1.65 µM (inactive) in the test with SF-295; 2.81 µM (inactive) in the test with NCI/ADR-RES.

Turning to `CCN(CC)CCNc1ccc(C)c2sc3ccccc3c(=O)c12` [LUCANTHONE HYDROCHLORIDE], the GI50 in the test on U-251 is 2.33 µM (inactive); in the test on HL-60 it was 1.79 µM (inactive); in the test on A549, 2.61 µM (inactive); in the test with MDA-MB-435 it was 2.04 µM (inactive); in the test with 786-0 it was 3.02 µM (inactive); with SF-268, 5.81 µM (inactive). Also, the GI50 in the test on NCI-H226 was 5.04 µM (inactive); with UACC-257, 1.66 µM (inactive); in the test on COLO 205, 1.67 µM (inactive); in the test with EKVX it was 6.82 µM (inactive); in the test with DU-145, 6.67 µM (inactive); in the test with LOX IMVI it was 1.49 µM (inactive). Besides, the GI50 in the test with HCC 2998 was 3.64 µM (inactive); with IGROV-1, 5.42 µM (inactive); in the test with HCT-15 it was 2.75 µM; in the test with OVCAR-3, 6.08 µM (inactive); with MDA-N it was 1.95 µM (inactive); with SF-295, 2.18 µM (inactive). Also, in the test with NCI/ADR-RES, the GI50 was 4.3 µM (inactive).

In the case of `O=[N+]([O-])C(Cl)C(Cl)C(Cl)=C(Cl)Cl` (configuration not stated), the GI50 was > 83.6 µM (inactive) in the test with U-251; 10.4 µM (inactive) in the test on HL-60; > 91.8 µM (inactive) in the test with A549; 23.7 µM (inactive) in the test on MDA-MB-435; 7.85 µM (inactive) in the test with 786-0; > 45.8 µM (inactive) in the test with SF-268. The GI50 in the test on NCI-H226 was > 100 µM (inactive); in the test on UACC-257 it was 22.1 µM (inactive); in the test on COLO 205 it was 17.5 µM (inactive); in the test on EKVX it was > 100 µM (inactive); with DU-145 it was 88.7 µM (inactive); in the test on LOX IMVI it was 14.4 µM (inactive). Besides, the GI50 in the test with HCC 2998 is > 40.9 µM (inactive); in the test with IGROV-1, 13.3 µM (inactive); in the test with HCT-15 it was 18.7 µM; with OVCAR-3, 26 µM (inactive); in the test with MDA-N, 19.1 µM (inactive); with SF-295, 60 µM (inactive). Further, the GI50 in the test with NCI/ADR-RES is 40.7 µM (inactive).

For `O=C(O)c1ccccc1/C=N/N=C1c2ccccc2-c2ccccc21`, the GI50 in the test on U-251 was 22 µM (inactive); with HL-60 it was 28.8 µM (inactive); in the test with A549, 31.6 µM (inactive); in the test on MDA-MB-435 it was 29.9 µM (inactive); with 786-0 it was 29.6 µM (inactive); in the test with SF-268, 21.3 µM (inactive). Besides, the GI50 was 20.8 µM (inactive) in the test with NCI-H226; 85.1 µM (inactive) with UACC-257; 32.1 µM (inactive) in the test on COLO 205; 35.3 µM (inactive) with HOP-92; 29 µM (inactive) in the test on EKVX; 42.7 µM (inactive) in the test on DU-145. The GI50 in the test with LOX IMVI was 37.7 µM (inactive); in the test with IGROV-1, 43.3 µM (inactive); with HCT-15 it was 44.8 µM; with OVCAR-3, 15.6 µM (inactive); in the test on MDA-N it was 37.5 µM (inactive); with SF-295 it was 29.3 µM (inactive). The GI50 in the test on NCI/ADR-RES was 52.8 µM (inactive).

In the case of `CC(=O)N1CC[N+](C)(CCCCN2c3ccccc3Sc3cc(N=[N+]=[N-])ccc32)CC1`, the GI50 with U-251 was > 100 µM (inactive); with HL-60, 86.5 µM (inactive); in the test on A549, > 100 µM (inactive); in the test with MDA-MB-435, > 100 µM (inactive); in the test with 786-0, > 100 µM (inactive); in the test on SF-268 it was > 100 µM (inactive). Moreover, the GI50 in the test on NCI-H226, with UACC-257, in the test with COLO 205, with EKVX, in the test on DU-145 and in the test with LOX IMVI was > 100 µM (inactive) in each case. The GI50 in the test on HCC 2998 is > 100 µM (inactive); in the test on IGROV-1, > 100 µM (inactive); in the test on HCT-15 it was over 100 µM; with OVCAR-3, > 100 µM (inactive); in the test with MDA-N it was > 100 µM (inactive); in the test with SF-295, > 100 µM (inactive). In addition, the GI50 in the test on NCI/ADR-RES is > 100 µM (inactive).

In the case of `COc1ccc(/C=C/C(=O)CC(=O)/C=C/c2ccc(OC)cc2)cc1`, the GI50 in the test with U-251 was 41.3 µM (inactive); in the test with HL-60, 25.6 µM (inactive); with A549 it was 80.4 µM (inactive); in the test with MDA-MB-435, 38.6 µM (inactive); in the test on 786-0 it was 30.8 µM (inactive); with SF-268, 46.3 µM (inactive). The GI50 with NCI-H226 is > 100 µM (inactive); in the test with UACC-257 it was > 100 µM (inactive); with COLO 205, 69.5 µM (inactive); in the test with EKVX, 54.7 µM (inactive); in the test on DU-145 it was 74.5 µM (inactive); in the test with LOX IMVI, 1.4 µM (inactive). For the same molecule, the GI50 is > 100 µM (inactive) with HCC 2998; > 100 µM (inactive) in the test on IGROV-1; 42.9 µM with HCT-15; 23.1 µM (inactive) in the test on OVCAR-3; 20.7 µM (inactive) in the test on MDA-N; 27.9 µM (inactive) with SF-295. The GI50 in the test on NCI/ADR-RES is 36.1 µM (inactive).

For `COC(=O)c1sc2ncc3c(c2c1N)CC(C)CC3` (configuration not stated), the GI50 in the test with U-251 is > 100 µM (inactive); in the test with A549, > 100 µM (inactive); with MDA-MB-435 it was > 100 µM (inactive); with 786-0 it was 81.3 µM (inactive); in the test with SF-268, > 100 µM (inactive); with NCI-H226, > 100 µM (inactive). The GI50 was > 100 µM (inactive) in the test with UACC-257; > 100 µM (inactive) with COLO 205; > 100 µM (inactive) with HOP-92; > 100 µM (inactive) in the test with EKVX; > 100 µM (inactive) in the test on DU-145; 71.3 µM (inactive) in the test with LOX IMVI. Besides, the GI50 with HCC 2998 was > 100 µM (inactive); in the test on IGROV-1, > 100 µM (inactive); in the test with HCT-15, over 100 µM; in the test on OVCAR-3 it was > 100 µM (inactive); in the test on MDA-N, > 100 µM (inactive); in the test on SF-295, > 100 µM (inactive). Besides, the GI50 in the test with NCI/ADR-RES is > 100 µM (inactive).

For the molecule `O=C1C=CC2CCC1C2` (configuration not stated), the GI50 with U-251 was 28.8 µM (inactive); with HL-60, 19.2 µM (inactive); with A549 it was 40.6 µM (inactive); in the test on MDA-MB-435, 17.2 µM (inactive); in the test with 786-0, 40.9 µM (inactive); with SF-268, 20.2 µM (inactive). In addition, the GI50 is 39.4 µM (inactive) with NCI-H226; 46.8 µM (inactive) in the test on UACC-257; 33.7 µM (inactive) in the test with COLO 205; > 100 µM (inactive) in the test with EKVX; 34.2 µM (inactive) in the test on DU-145; 29.4 µM (inactive) in the test on LOX IMVI. Moreover, the GI50 was 30.1 µM (inactive) in the test on HCC 2998; 53.3 µM (inactive) in the test with IGROV-1; 18.2 µM with HCT-15; 43.1 µM (inactive) in the test with OVCAR-3; 25 µM (inactive) with MDA-N; 44.2 µM (inactive) in the test with SF-295. The GI50 in the test on NCI/ADR-RES is 22.4 µM (inactive).

As to `CC(=O)/C=N/CC(=O)O`, the GI50 in the test with U-251, with HL-60, in the test on A549, with MDA-MB-435, with 786-0 and in the test with SF-268 was > 100 µM (inactive) each time. The GI50 with NCI-H226, with UACC-257, in the test on COLO 205, in the test on HOP-92, in the test with EKVX and in the test on DU-145 was > 100 µM (inactive) each time. The GI50 was > 100 µM (inactive) in the test with LOX IMVI; > 100 µM (inactive) in the test with IGROV-1; over 100 µM in the test with HCT-15; > 100 µM (inactive) in the test with OVCAR-3; > 100 µM (inactive) in the test on MDA-N; > 100 µM (inactive) with SF-295. The GI50 in the test on NCI/ADR-RES is > 100 µM (inactive).
